# In publication PMC12888856 (Antimicrobial Agents and Chemotherapy, 2025):
# How the values were obtained:
# Assay type in all cases: cell-based, Influenza A virus
# A/Malaya/302/1954 (H1N1) = experiment: microbe, parasite or virus in culture; conditions: read-out: EC50
# [1] = system: Baloxavir-resistant A/Puerto Rico/8/1934 (PA I38T)
# [2] = system: Oseltamivir-resistant A/Weiss/1943 (NA H275Y)
Compound,EC50 (A/Malaya/302/1954 (H1N1)) [µM],EC50 [1] [µM],EC50 [2] [µM],Fold shift [1],Fold shift [2]
"O=C1c2c(O)c(=O)ccn2N([C@@H]2c3ccccc3SCc3c2ccc(F)c3F)[C@@H]2COCCN12 [Baloxavir, baloxavir, reference compound]",0.0011,0.105,0.00042,–,–
"CCOC(=O)C1=C[C@@H](OC(CC)CC)[C@H](NC(C)=O)[C@@H](N)C1 [Oseltamivir, oseltamivir, reference compound]",1.15,2.81,> 78.4,2.89,>74.66
COC[C@@]1(C)COC[C@@H](COc2ccc(-c3cc(C(N)=O)c(O)nc3C(F)(F)F)cc2)O1 [VNT-101],> 50,–,0.118,–,–
